Patent publication US20010044445A1, “AZOLE INHIBITORS OF CYTOKINE PRODUCTION” (priority 1999, published 2001)

Experiments:
[1] = test system: Human peripheral blood mononuclear cells; test: Human Concanavalin-A Proliferation Assay (Con HU Assay); format: cell-based; settings: Homo sapiens, PBMC, concanavalin-A stimulated human PBMC; for IC50: tritiated thymidine; for inhibition at 1 µM: concentration 1 μm (in parentheses in the cell); for inhibition at 10 µM: concentration 10 μm (in parentheses in the cell)
Procedure, shortened: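 Histopaque-isolated human PBMC (50,000/well) were pre-incubated 15 min with compounds, then stimulated with concanavalin-A at 2.5 μg/ml final for 3 days at 37 °C, 5% CO2. Proliferation measured by 6 h pulse with 0.5 μCi/well [3H]thymidine and beta counting.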

[2] = 72 h, 3 days, read-out: % Inhibition of proliferation (at concentrations of 1,10, or 100 μm)

SMILES	IC50 [1] [nM]	melting point [°C]	inhibition at 100 µM ([1]; 72 h, concentration 100 μm (in parentheses in the cell), 3 days, read-out: % Inhibition of proliferation (at concentrations of 1,10, or 100 μm)) [%]	inhibition at 1 µM [1, 2] [%]	inhibition at 10 µM [1, 2] [%]
O=C(Nc1ccc(-n2nc(C(F)(F)F)cc2Br)cc1)c1ccncc1Cl [Example 349, N-(4-(5-bromo-3-(trifluoromethyl)-1H-pyrazol-1-yl)phenyl)-3-chloroisonicotinamide]	224	79 to 82	–	–	–
COC(=O)c1cccc(C(=O)Nc2ccc(-n3nc(C(F)(F)F)cc3C(F)(F)F)cc2)c1 [Example 129, Methyl 3-[[[4-[3,5-bis(trifluoromethyl)-1H-pyrazol-1-yl]phenyl]amino]carbonyl]benzoate]	380	174 to 175	100	–	–
Cc1noc(C)c1C(=O)Nc1ccc(-n2ccc(C(F)(F)F)n2)cc1 [Example 287, 3,5-dimethyl-N-[4-[3-(trifluoromethyl)-1H-pyrazol-1-yl)phenyl]-4-isoxazolecarboxamide]	–	177 to 178	–	24	–
O=C(Nc1ccc(-n2nc(C(F)(F)F)cc2C(F)(F)F)cc1)c1cnc(Cl)c(Cl)c1 [Example 268, N-[4-[3,5-bis(trifluoromethyl)-1H-pyrazol-1-yl]phenyl]-5,6-dichloro-3-pyridinecarboxamide]	347	175 to 177	–	–	100
O=C(Nc1ccc(-n2nc(C(F)(F)F)cc2C(F)(F)F)cc1)c1ccccc1C(=O)c1ccccc1 [Example 22, 2-Benzoyl-N-[4-[3,5-bis(trifluoromethyl)-1H-pyrazol-1-yl]phenyl]benzamide]	–	204 to 205	–	14	–
NS(=O)(=O)c1cccc(C(=O)Nc2ccc(-n3nc(C(F)(F)F)cc3C(F)(F)F)cc2)c1 [Example 141, 3-(aminosulfonyl)-N-[4-[3,5-bis(trifluoromethyl)-1H-pyrazol-1-yl]phenyl]benzamide]	–	177 to 178	–	4	–
N#Cc1cc(C(F)(F)F)nn1-c1ccc(NC(=O)c2ccncc2F)cc1 [Example 304, N-(4-(5-cyano-3-(trifluoromethyl)-1H-pyrazol-1-yl)phenyl)-3-fluoroisonicotinamide]	266	161 to 162	–	–	–
O=C(Nc1ccc(-n2nc(C(F)(F)F)cc2C(F)(F)F)cc1)c1cccc(Cl)c1F [Example 214, N-[4-[3,5-bis(trifluoromethyl)-1H-pyrazol-1-yl]phenyl]-3-chloro-2-fluorobenzamide]	68	113 to 116	–	–	100
CSc1cc(C(F)(F)F)nn1-c1ccc(NC(=O)c2cccnc2F)cc1 [Example 316, 2-fluoro-N-(4-(5-(methylsulfanyl)-3-(trifluoromethyl)-1H-pyrazol-1-yl)phenyl)nicotinamide]	41	167 to 168	–	–	–
O=C(Nc1ccc(-n2nc(C(F)(F)F)cc2C(F)(F)F)cc1)c1cc(F)c(Cl)cc1F [Example 225, N-[4-[3,5-bis(trifluoromethyl)-1H-pyrazol-1-yl]phenyl]-4-chloro-2,5-difluorobenzamide]	154	160 to 162	–	–	98
O=C(Nc1ccc(-n2nc(C(F)(F)F)cc2C(F)(F)F)cc1)c1ccc(Cl)s1 [Example 253, N-[4-[3,5-bis(trifluoromethyl)-1H-pyrazol-1-yl]phenyl]-5-chloro-2-thiophenecarboxamide]	447	182 to 184	–	–	94
Cc1c(NC(=O)Nc2ccc(-n3nc(C(F)(F)F)cc3C(F)(F)F)cc2)cccc1[N+](=O)[O-] [Example 40, N-[4-[3,5-bis(trifluoromethyl)-1H-pyrazol-1-yl]phenyl]-N′-(2-methyl-3-nitrophenyl)urea]	–	235 to 236	–	36	–
COc1cccc(O)c1C(=O)Nc1ccc(-n2nc(C(F)(F)F)cc2C(F)(F)F)cc1 [Example 182, N-[4-[3,5-bis(trifluoromethyl)-1H-pyrazol-1-yl]phenyl]-2-hydroxy-6-methoxybenzamide]	4670	114 to 116	–	–	83
